# Laboratory results as given in US20260206760A1, “AZOLE COMPOUNDS FOR CONTROLLING AND COMBATING INVERTEBRATE PESTS” (FMC CORPORATION, priority 2022, published 2026).
# Assays:
# Format in all cases: in vivo
# [1] = test system: corn planthopper (Peregrinus maidis (Ashmead)); experiment: whole plant or invertebrate; details: 144 h, sprayed at 50 ppm, nymphs, assessed after 6 days
# Procedure: (§1) Test compounds were formulated using a solution containing 10% acetone, 90% water and 300 ppm Activator 90® non-ionic surfactant (Loveland Products, Loveland, Colorado, USA). The formulated compounds were applied in 1 mL of liquid through an atomizer nozzle positioned 1.27 cm (0.5 inches) above the top of each test unit. Test compounds were sprayed at the rates indicated, and each test was replicated three times.
# For evaluating control of corn planthopper (Peregrinus maidis (Ashmead)) through contact and/or systemic means, the test unit consisted of a small open container with a 3-4-day-old corn (maize) plant inside. White sand was added to the top of the soil prior to application of the test compound.
# Test compounds were formulated and sprayed at 250 and/or 50 ppm and/or 10 ppm. After spraying of the formulated test compound, the test units were allowed to dry for 1 h before they were post-infested with ~15-20 nymphs (18-to-21-day-old). A black, screened cap was placed on the top of each test unit, and the test units were held for 6 days in a growth chamber at 22-24° C. and 50-70% relative humidity. Each test unit was then visually assessed for insect mortality.
# [2] = test system: cotton melon aphid (Aphis gossypii (Glover)); experiment: whole plant or invertebrate; details: 144 h, assessed after 6 days; for mortality at 50 ppm: sprayed at 50 ppm
# Procedure: as §1
# For evaluating control of cotton melon aphid (Aphis gossypii (Glover)) through contact and/or systemic means, the test unit consisted of a small open container with a 5-day-old okra plant inside. This was pre-infested with 30-40 insects on a piece of leaf according to the cut-leaf method, and the soil of the test unit was covered with a layer of sand.
# Test compounds were formulated and sprayed at 250 and/or 50 ppm. After spraying, the test units were maintained in a growth chamber for 6 days at 19° C. and 70% relative humidity. Each test unit was then visually assessed for insect mortality.
# [3] = test system: green peach aphid (Myzus persicae (Sulzer)); experiment: Test B: control of green peach aphid, spray on radish plant, visual mortality; details: 144 h, assessed after 6 days; for mortality at 50 ppm: sprayed at 50 ppm
# Procedure: as §1
# For evaluating control of green peach aphid (Myzus persicae (Sulzer)) through contact and/or systemic means, the test unit consisted of a small open container with a 12-15-day-old radish plant inside. This was pre-infested by placing on a leaf of the test plant 30-40 aphids on a piece of leaf excised from a culture plant (cut-leaf method). The aphids moved onto the test plant as the leaf piece desiccated. After pre-infestation, the soil of the test unit was covered with a layer of sand.
# (§2) Test compounds were formulated and sprayed at 250 and/or 50 ppm. After spraying of the formulated test compound, each test unit was allowed to dry for 1 hour and then a black, screened cap was placed on top. The test units were held for 6 days in a growth chamber at 19-21° C. and 50-70% relative humidity. Each test unit was then visually assessed for insect mortality.
# [4] = test system: diamondback moth (Plutella xylostella (L.)); details: sprayed at 250 ppm; neonate larvae; assessed after 6 days; very good to excellent levels of control efficacy
# Procedure: as §1
# For evaluating control of diamondback moth (Plutella xylostella (L.)) the test unit consisted of a small open container with a 12-14-day-old mustard plant inside. This was pre-infested with ~50 neonate larvae that were dispensed into the test unit via corn cob grits using an inoculator. The larvae moved onto the test plant after being dispensed into the test unit.
# as §2, with “25°” for “19-21°”, “70%” for “50-70%”, “Plant feeding damage” for “Each test unit”, “assessed based on foliage consumed, and larvae were assessed” for “assessed”, “for” for “for insect”
# [5] = test system: sweetpotato whitefly (Bemisia tabaci (Gennadius)); experiment: whole plant or invertebrate; details: 312 h, sprayed at 50 ppm, eggs on cotton leaf, assessed after 13 days
# Procedure: as §1
# For evaluating control of the sweetpotato whitefly (Bemisia tabaci (Gennadius)) through contact and/or systemic means, the test unit consisted of a small open container with a 12-14-day-old cotton plant inside. Prior to the spray application, both cotyledons were removed from the plant, leaving one true leaf for the assay. Adult whiteflies were allowed to lay eggs on the plant and then were removed from the test unit. Cotton plants infested with at least 15 eggs were submitted to the test for spraying.
# Test compounds were formulated and sprayed at 50 and/or 10 ppm. After spraying, the test units were allowed to dry for 1 hour. The cylinders were then removed, and the units were taken to a growth chamber and held for 13 days at 28° C. and 50-70% relative humidity. Each test unit was then visually assessed for insect mortality.
SMILES,mortality at 50 ppm [1],mortality at 50 ppm [2],mortality at 50 ppm [3],control efficacy (feeding damage and/or mortality) [4],mortality at 250 ppm ([2]; sprayed at 250 ppm),mortality at 250 ppm ([3]; sprayed at 250 ppm),mortality at 50 ppm [5]
"FC(F)(F)Oc1ccc(/C=C/c2ccncc2-n2nccn2)cc1 [Compound 1, 3-(1,2,3-triazol-2-yl)-4-[(1E)-2-[4-(trifluoromethoxy)phenyl]ethenyl]pyridine]",≥ 80%,≥ 80%,≥ 80%,,,,
"Fc1cncc(-n2ccnn2)c1C1CC1c1ccc(C(F)(F)F)cc1 (stereo not shown) [Compound 3, 3-fluoro-5-(triazol-1-yl)-4-[2-[4-(trifluoromethyl)phenyl]cyclopropyl]pyridine]",,,,40% or less feeding damage and/or 100% mortality,,,
"Fc1cncc(-n2nccn2)c1C1CC1c1ccc(C(F)(F)F)cc1 (stereo not shown) [Compound 4, 3-fluoro-5-(triazol-2-yl)-4-[2-[4-(trifluoromethyl)phenyl]cyclopropyl]pyridine]",,≥ 80%,≥ 80%,40% or less feeding damage and/or 100% mortality,≥ 80%,≥ 80%,≥ 70%
